Experimental data as given in ChEMBL document CHEMBL3045843, “Binding of Nicotinoids and the Related Compounds to the Insect Nicotinic Acetyicholine Receptor” (J Pestic Sci, 1992).

How the values were obtained:
[1] = Displacement of [3H]alpha-bungarotoxin from nAChR in honeybee head membrane after 60 min by scintillation counting; assay type: cell membranes, Apis mellifera
[2] = target: T1, Nicotinic acetylcholine receptor alpha 5 subunit (Musca domestica, UniProt A9XFY4); test: Displacement of [3H]alpha-bungarotoxin from nAChR in Musca domestica (house fly) head membrane after 60 min by scintillation counting
T1 sequence (A9XFY4 whole entry): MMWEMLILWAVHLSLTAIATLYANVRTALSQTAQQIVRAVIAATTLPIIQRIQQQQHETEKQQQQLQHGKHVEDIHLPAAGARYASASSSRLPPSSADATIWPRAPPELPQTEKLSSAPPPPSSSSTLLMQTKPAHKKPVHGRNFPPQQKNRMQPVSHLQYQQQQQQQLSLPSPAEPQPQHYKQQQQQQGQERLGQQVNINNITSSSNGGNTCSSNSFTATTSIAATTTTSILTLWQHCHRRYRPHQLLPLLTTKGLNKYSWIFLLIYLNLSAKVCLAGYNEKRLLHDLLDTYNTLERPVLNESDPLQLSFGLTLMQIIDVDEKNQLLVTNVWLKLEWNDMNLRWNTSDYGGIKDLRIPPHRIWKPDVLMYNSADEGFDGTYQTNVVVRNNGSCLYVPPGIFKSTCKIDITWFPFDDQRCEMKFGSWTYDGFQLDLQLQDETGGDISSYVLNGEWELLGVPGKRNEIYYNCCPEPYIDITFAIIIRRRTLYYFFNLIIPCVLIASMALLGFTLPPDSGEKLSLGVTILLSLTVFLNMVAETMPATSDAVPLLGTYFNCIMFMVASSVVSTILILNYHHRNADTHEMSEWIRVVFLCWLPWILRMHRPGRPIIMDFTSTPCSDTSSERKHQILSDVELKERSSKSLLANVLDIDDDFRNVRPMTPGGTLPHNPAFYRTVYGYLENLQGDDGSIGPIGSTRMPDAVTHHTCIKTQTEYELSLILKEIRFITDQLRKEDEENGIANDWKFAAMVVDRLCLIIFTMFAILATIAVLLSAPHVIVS

[3] = tested on: Musca domestica; test: Insecticidal activity against Musca domestica (house fly) assessed as mortality relative to nicotine; assay type: functional
[4] = Disocciation constant, pKa of the compound at 37 degC; assay type: physicochemical
[5] = target: Acetylcholinesterase (Musca domestica, UniProt Q7YWJ9); test: Inhibition of Musca domestica (house fly) acetylcholinesterase
Acetylcholinesterase, sequence (Q7YWJ9 whole entry): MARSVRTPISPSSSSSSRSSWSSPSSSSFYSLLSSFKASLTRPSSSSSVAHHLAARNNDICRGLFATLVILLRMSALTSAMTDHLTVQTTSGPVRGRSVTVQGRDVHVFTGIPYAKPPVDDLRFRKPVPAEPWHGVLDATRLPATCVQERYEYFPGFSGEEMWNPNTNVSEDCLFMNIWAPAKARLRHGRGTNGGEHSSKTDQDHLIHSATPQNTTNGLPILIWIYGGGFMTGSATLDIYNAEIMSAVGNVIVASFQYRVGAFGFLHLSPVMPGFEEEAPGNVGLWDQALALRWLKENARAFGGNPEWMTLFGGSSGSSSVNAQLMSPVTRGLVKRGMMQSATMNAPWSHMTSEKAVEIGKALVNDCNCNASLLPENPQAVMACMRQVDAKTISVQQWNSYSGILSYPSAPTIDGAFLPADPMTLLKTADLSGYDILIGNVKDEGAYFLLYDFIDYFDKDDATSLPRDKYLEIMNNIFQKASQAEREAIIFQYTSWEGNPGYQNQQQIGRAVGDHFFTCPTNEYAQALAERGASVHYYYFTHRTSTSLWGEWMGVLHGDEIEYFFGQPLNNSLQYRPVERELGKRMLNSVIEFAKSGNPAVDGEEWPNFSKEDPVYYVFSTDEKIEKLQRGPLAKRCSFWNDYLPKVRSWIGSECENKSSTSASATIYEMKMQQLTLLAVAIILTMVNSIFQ

[6] = Disocciation constant, pKa of the compound at 25 degC; assay type: physicochemical

| Structure (SMILES) | Ki [1] [µM] | Ki [2] [µM] | fold change (FC) [3] | pKa [4] | IC50 [5] [µM] | pKa [6] |
| --- | --- | --- | --- | --- | --- | --- |
| CN(C)Cc1ccncc1 | > 1000 | > 1000 | – | – | – | – |
| CCN(CC)Cc1ccccn1 | – | – | 0.1 | 8.42 | 3000 | – |
| CCN(CC)Cc1ccncc1 | – | – | 0.1 | 7.96 | 7700 | – |
| CN(C)Cc1ccccn1 | > 1000 | > 1000 | – | – | – | – |
| CCNCc1cccnc1 | 289 | 380 | 0.34 | 8.96 | 7100 | – |
| CCCNCc1cccnc1 | > 1000 | > 1000 | 0.15 | 8.38 | 17000 | – |
| CC(C)NCc1cccnc1 | 103 | 226 | 0.46 | 8.46 | 3900 | – |
| CCCCNCc1cccnc1 | 406 | > 1000 | 0.16 | 8.66 | 23000 | – |
| CCN(CC)Cc1cccnc1 | 155 | 450 | 0.46 | 8.12 | 890 | – |
| CCCN(CCC)Cc1cccnc1 | 200 | 220 | 0.16 | 8.13 | 1700 | – |
| CCCCN(CCCC)Cc1cccnc1 | 175 | > 1000 | 0.28 | 8.08 | 2800 | – |
| c1cncc(CN2CCCCC2)c1 | 48.7 | 67.6 | 0.79 | 8.16 | 1500 | – |
| c1cncc(CN2CCOCC2)c1 | > 1000 | > 1000 | 0.04 | 5.76 | – | – |
| CCOc1ccccc1Cn1nc(OC)oc1=O | > 100 | > 100 | – | – | – | – |
| COc1nn(-c2ccc(C)cc2OC)c(=O)o1 | > 1000 | > 1000 | – | – | – | – |
| N#C/N=C1/NCCN1/C=N/c1ccccc1 | > 500 | > 500 | – | – | – | – |
| O=[N+]([O-])C(/C=N/c1ccccc1)=C1NCCN1 | > 500 | > 500 | – | – | – | – |
| CN(C)Cc1cccnc1 | 208 | 201 | 0.45 | 7.76 | 5100 | – |
| CNCc1cccnc1 | 377 | 600 | 0.3 | 8.3 | 31000 | – |
| c1cncc(C2CCCCN2)c1 (racemic) [DL-ANABASINE] | – | – | 0.6 | – | – | – |
| CN1CCC[C@H]1c1cccnc1 (racemic) [NICOTINE] | – | – | 1 | – | 620 | – |
| c1cncc([C@@H]2CCCN2)c1 (racemic) [NORNICOTINE] | 7.61 | 8.77 | 0.3 | – | 9700 | – |
| O=[N+]([O-])C=C1NCCN1 [2-(NITROMETHYLENE)IMIDAZOLIDINE] | > 1000 | > 1000 | – | – | – | – |
| c1cncc([C@@H]2CCCCN2)c1 [ANABASINE] | – | – | – | 8.48 | – | 8.7 |

| Structure (SMILES) | Ki [1] [µM] | Ki [2] [µM] | fold change (FC) [3] | pKa [4] | IC50 [5] [µM] | pKa [6] |
| --- | --- | --- | --- | --- | --- | --- |
| COC(=O)C1=CCCN(C)C1 [ARECOLINE] | 240 | 516 | – | – | – | – |
| CN1[C@@H]2CC[C@H]1C[C@@H](OC(=O)C(CO)c1ccccc1)C2 (stereo partly drawn) [ATROPINE] | 26.3 | 32.5 | – | – | – | – |
| C[N+](C)(C)CCOC(N)=O [CARBACHOL] | 175 | 212 | – | – | – | – |
| CCC[C@H]1CCCCN1 [CONIINE] | 262 | > 1000 | – | – | – | – |
| CN1C(=O)CC[C@H]1c1cccnc1 [COTININE] | > 1000 | > 1000 | 0.03 | – | – | 4.5 |
| O=c1cccc2n1C[C@@H]1CNC[C@H]2C1 [CYTISINICLINE] | 0.65 | 1.23 | – | – | – | – |
| C[N+](C)(C)CCCCCCCCCC[N+](C)(C)C [DECAMETHONIUM] | 224 | 103 | – | – | – | – |
| C1=C(c2cccnc2)NCC1 [DIHYDRONICOTYRINE] | 1.27 | 1.92 | 2.6 | 7.21 | 350 | 7.4 |
| C[N+]1(C)CCN(c2ccccc2)CC1 [DIMETHYLPHENYLPIPERAZINIUM] | 49.5 | 86.3 | – | – | – | – |
| c1cncc(C2CCCCN2)c1 (stereo not drawn) [DL-ANABASINE] | 3.91 | 3.71 | – | – | 3900 | – |
| O=[N+]([O-])/N=C1\NCCN1Cc1ccc(Cl)nc1 [IMIDACLOPRID] | 2.53 | 7.47 | – | – | – | – |
| CN1[C@@H](CC(=O)c2ccccc2)CCC[C@H]1C[C@H](O)c1ccccc1 [LOBELINE] | 9.13 | 12.8 | – | – | – | – |
| CNC1(C)C2CCC(C2)C1(C)C (stereo not drawn) [MECAMYLAMINE] | 453 | > 1000 | – | – | – | – |
| c1cncc(C2=NCCC2)c1 [MYOSMINE] | > 1000 | > 1000 | 0.36 | 5.23 | 6800 | 5.5 |
| c1cncc(CN2CCCC2)c1 [N-(3-PYRIDYLMETHYL)PYRROLIDINE] | 14.3 | 16.4 | 0.43 | 8.11 | 1400 | – |
| CN(C)C1CSSC1 [NEREISTOXIN] | 254 | 187 | – | – | – | – |
| CN1CCC[C@H]1c1cccnc1 [NICOTINE] | 1.48 | 2.48 | – | 7.66 | 2600 | 7.9 |
| Cn1cccc1-c1cccnc1 [NICOTYRINE] | > 1000 | > 1000 | 0.18 | 4.5 | 2300 | 4.7 |
| c1cncc([C@@H]2CCCN2)c1 [NORNICOTINE] | – | – | – | 8.76 | 4200 | 9 |
| C[N+]1(CCCCC[N+]2(C)CCCC2)CCCC1 [PENTOLINIUM] | 72.2 | 108 | – | – | – | – |
| CN1CCC[C@@H]1c1cccnc1 [R-NICOTINE] | 43.7 | 59.9 | 1 | – | 230 | – |
| O=C1N(Cc2ccccc2)C2C[S+]3CCCC3C2N1Cc1ccccc1 (stereo not drawn) [TRIMETHAPHAN] | 5.79 | 2.75 | – | – | – | – |
| COc1cc2c3cc1Oc1cc(ccc1O)C[C@@H]1c4c(cc(OC)c(O)c4Oc4ccc(cc4)C[C@@H]3N(C)CC2)CC[N+]1(C)C [TUBOCURARINE] | 3.57 | 1.88 | – | – | – | – |
